Values belong to the compound of their own block, whether it stands above or below them.
Key:
[1] = Crystal form stability (DSC analysis / X-ray powder diffraction); assay type: physicochemical; settings: behaviour on heating, drying or at room temperature
Experimental: X-ray powder diffraction and differential scanning calorimeter analysis (DSC analysis) were conducted under the following conditions. “MAC Science […]22” equipped with a copper X-ray tube was used under the conditions of a current of 40 mA, a tube voltage of […], a sampling width of 0.020°, a scanning rate of 3°/min, wavelength of 1.54056 Å, and measurement angles of diffraction range of (2θ): 3 or 5 to 40°. “TA Instrument TA 5000” was used at a temperature from room temperature to 300° C. (10° C./min) and a N2 feed rate of 50 ml/min using an aluminum sampling pan.

Storage stability test = assay type: physicochemical
Experimental: (2-hydroxyethyl)trimethylammonium-4-(azulene-2-ylmethyl)-2-β-D-glucopyranosylphenolate (46 g) was put into a polyethylene bag, and the opening of the bag was closed with a bead band. The bag was put into another polyethylene bag containing silica gel (12 g). The opening of the bag was closed with a bead band. The bag was placed in a metal can, which was tightly sealed and stored in a dark place at 40° C. and 75% RH for six months. Apart from this, (2-hydroxyethyl)trimethylammonium-4-(azulene-2-ylmethyl)-2-β-D-glucopyranosylphenolate (10 g) was put into an open brown container and stored in a dark place at 40° C. and 75% RH for six months.

[2] = biological target: T1, Human Na+-glucose cotransporter (human SGLT2) (Homo sapiens, UniProt P31639); assay: Inhibition of methyl-α-D-glucopyranoside intake in CHO cells stably expressing human SGLT2; assay type: cell-based; settings: stated as equivalent to the value of Example 75 of Patent Document 1
T1 construct: expressed in transfected cells; host or cells: CHO-K1
T1 sequence (P31639 1-672): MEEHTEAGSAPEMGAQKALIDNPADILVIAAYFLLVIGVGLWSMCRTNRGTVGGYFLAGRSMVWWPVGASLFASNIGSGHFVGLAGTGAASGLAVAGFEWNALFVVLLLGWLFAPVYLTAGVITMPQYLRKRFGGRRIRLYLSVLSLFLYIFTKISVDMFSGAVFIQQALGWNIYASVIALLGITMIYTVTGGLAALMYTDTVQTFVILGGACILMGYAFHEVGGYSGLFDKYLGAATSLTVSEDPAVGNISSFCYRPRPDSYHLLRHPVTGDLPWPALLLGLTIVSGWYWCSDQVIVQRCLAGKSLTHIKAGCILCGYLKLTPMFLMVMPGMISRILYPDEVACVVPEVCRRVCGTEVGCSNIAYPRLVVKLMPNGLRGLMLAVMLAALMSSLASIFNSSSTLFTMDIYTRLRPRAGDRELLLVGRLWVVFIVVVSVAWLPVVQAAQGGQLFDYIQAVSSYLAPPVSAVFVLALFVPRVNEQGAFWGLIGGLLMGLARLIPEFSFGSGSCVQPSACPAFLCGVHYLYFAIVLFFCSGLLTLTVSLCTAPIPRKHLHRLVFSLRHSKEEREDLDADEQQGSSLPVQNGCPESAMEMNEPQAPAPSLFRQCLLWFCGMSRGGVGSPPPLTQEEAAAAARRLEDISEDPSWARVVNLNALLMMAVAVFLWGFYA
Description: [Test for Confirming Effect of Inhibiting Activity of Human Na^+-Glucose Cotransporter (Human SGLT2)]
First, single-stranded cDNA was reversely transcripted from total RNA originating from human kidney (manufactured by BD Biosciences Clontech) using a Superscript II (manufactured by Invitrogen Corporation) and a random hexamer. Second, using the cDNA as a template, a DNA fragment encoding human SGLT2 (Wells R. G. et al., Am. J. Physiol., 1992, 263 (3) F459) was amplified by a PCR reaction using Pyrobest DNA polymerase (manufactured by Takara Bio Inc.) (A primer where a Hind III site and an EcoRI site were inserted into the 5′ side and the 3′ side of the DNA fragment, respectively, was used).
The amplified fragment was cloned into a pCR2.1-Topo vector using a Topo TA Cloning Kit (manufactured by Invitrogen Corporation), and the cloned vector was transfected into a competent cell of Escherichia coli JM109. Ampicillin-resistant clones were cultured in a LB medium containing ampicillin (100 mg/l). A plasmid was purified from the cultured Escherichia coli using the method of Hanahan (see Maniatis et al., “Molecular Cloning”). […]

[3] = 40° C., 75% RH, silica gel/polyethylene bags (double) in a metal can, dark place, 2 months
[4] = 40° C., 75% RH, silica gel/polyethylene bags (double) in a metal can, dark place, 4 months
[5] = 40° C., 75% RH, silica gel/polyethylene bags (double) in a metal can, dark place, 6 months
[6] = at the start of storing, 0 month
[7] = 40° C., 75% RH, brown glass container, open, dark place, 2 months
[8] = 40° C., 75% RH, brown glass container, open, dark place, 4 months
[9] = 40° C., 75% RH, brown glass container, open, dark place, 6 months

Compound: [Na+].[O-]c1ccc(Cc2cc3cccccc-3c2)cc1[C@@H]1O[C@H](CO)[C@@H](O)[C@H](O)[C@H]1O [Comparative Example 1, sodium 4-(azulen-2-ylmethyl)-2-β-D-glucopyranosylphenolate]
Stability of the crystal form [1]: change form due to dissociation of volatile components at a low temperature

Compound: [K+].[O-]c1ccc(Cc2cc3cccccc-3c2)cc1[C@@H]1O[C@H](CO)[C@@H](O)[C@H](O)[C@H]1O [Comparative Example 2, potassium 4-(azulen-2-ylmethyl)-2-β-D-glucopyranosylphenolate]
Stability of the crystal form [1]: change form due to dissociation of volatile components at a low temperature

Compound: [Li+].[O-]c1ccc(Cc2cc3cccccc-3c2)cc1[C@@H]1O[C@H](CO)[C@@H](O)[C@H](O)[C@H]1O [Comparative Example 3, lithium 4-(azulen-2-ylmethyl)-2-β-D-glucopyranosylphenolate]
Stability of the crystal form [1]: change form due to dissociation of volatile components at a low temperature

Compound: OC[C@H]1O[C@@H](c2cc(Cc3cc4cccccc-4c3)ccc2O)[C@H](O)[C@@H](O)[C@@H]1O [Comparative Example 5, (1S)-1,5-anhydro-1-[5-(azulen-2-ylmethyl)-2-hydroxyphenyl]-D-glucitol hydrate crystal-1]
Stability of the crystal form [1]: transformed into anhydride crystal-3 of azulene compound A

Compound: OC[C@H]1O[C@@H](c2cc(Cc3cc4cccccc-4c3)ccc2O)[C@H](O)[C@@H](O)[C@@H]1O [Comparative Example 7, (1S)-1,5-anhydro-1-[5-(azulen-2-ylmethyl)-2-hydroxyphenyl]-D-glucitol anhydride crystal-1]
Stability of the crystal form [1]: stable only at high temperature and cannot be isolated at room temperature

Compound: OC[C@H]1O[C@@H](c2cc(Cc3cc4cccccc-4c3)ccc2O)[C@H](O)[C@@H](O)[C@@H]1O [Comparative Example 8, (1S)-1,5-anhydro-1-[5-(azulen-2-ylmethyl)-2-hydroxyphenyl]-D-glucitol anhydride crystal-2]
Stability of the crystal form [1]: stable only at a high temperature and could not be isolated at room temperature

Analogous compounds (%) (HPCL) Maximum of each compound (Storage stability test; [3]): 0.26%
Analogous compounds (%) (HPCL) Total amount (Storage stability test; [3]): 0.66%
Quantitative analysis (%) (HPCL) (Storage stability test; [3]): 99.5%
Water content (%) (Storage stability test; [3]): 0.29%
Analogous compounds (%) (HPCL) Maximum of each compound (Storage stability test; [4]): 0.26%
Analogous compounds (%) (HPCL) Total amount (Storage stability test; [4]): 0.62%
Quantitative analysis (%) (HPCL) (Storage stability test; [4]): 99.0%
Water content (%) (Storage stability test; [4]): 0.22%
Analogous compounds (%) (HPCL) Maximum of each compound (Storage stability test; [5]): 0.27%
Analogous compounds (%) (HPCL) Total amount (Storage stability test; [5]): 0.44%
Quantitative analysis (%) (HPCL) (Storage stability test; [5]): 99.5%
Water content (%) (Storage stability test; [5]): 0.19%
Storage stability (conclusion from Table 3) (Storage stability test; 40° C., 75% RH, six months): stable compounds
Analogous compounds (%) (HPCL) Maximum of each compound (Storage stability test; [6]): 0.26%
Analogous compounds (%) (HPCL) Total amount (Storage stability test; [6]): 0.61%
Quantitative analysis (%) (HPCL) (Storage stability test; [6]): 99.0%
Water content (%) (Storage stability test; [6]): 0.39%
IC50 [2]: ~8.9 nM
Compound: OC[C@H]1O[C@@H](c2cc(Cc3cc4cccccc-4c3)ccc2O)[C@H](O)[C@@H](O)[C@@H]1O [Example 1, (2-hydroxyethyl)trimethylammonium 4-(azulen-2-ylmethyl)-2-β-D-glucopyranosylphenolate]

Analogous compounds (%) (HPCL) Maximum of each compound (Storage stability test; [7]): 0.25%
Analogous compounds (%) (HPCL) Total amount (Storage stability test; [7]): 0.58%
Quantitative analysis (%) (HPCL) (Storage stability test; [7]): 99.2%
Water content (%) (Storage stability test; [7]): 3.78%
Analogous compounds (%) (HPCL) Maximum of each compound (Storage stability test; [8]): 0.24%
Analogous compounds (%) (HPCL) Total amount (Storage stability test; [8]): 0.57%
Quantitative analysis (%) (HPCL) (Storage stability test; [8]): 99.9%
Water content (%) (Storage stability test; [8]): 3.59%
Analogous compounds (%) (HPCL) Maximum of each compound (Storage stability test; [9]): 0.24%
Analogous compounds (%) (HPCL) Total amount (Storage stability test; [9]): 0.43%
Quantitative analysis (%) (HPCL) (Storage stability test; [9]): 98.8%
Water content (%) (Storage stability test; [9]): 3.61%
Compound: OC[C@H]1O[C@@H](c2cc(Cc3cc4cccccc-4c3)ccc2O)[C@H](O)[C@@H](O)[C@@H]1O [Example 2, (2-hydroxyethyl)trimethylammonium 4-(azulen-2-ylmethyl)-2-β-D-glucopyranosylphenolate hydrate]

From patent publication US20090182039A1, “Choline Salt Crystal of Azulene Compound” (priority 2005, published 2009)
